Where two headings read alike, the source gives them in different places.

The target of one experiment is T1, 5-HT1A recognition sites (Rattus norvegicus, UniProt P19327).
T1 construct: male normotensive Sprague-Dawley rat frontal cortex was dissected, frozen in liquid nitrogen; from tissue; host or cells: frontal cortex of male normotensive Sprague-Dawley rats, washed homogenate
T1 sequence (P19327 1-422): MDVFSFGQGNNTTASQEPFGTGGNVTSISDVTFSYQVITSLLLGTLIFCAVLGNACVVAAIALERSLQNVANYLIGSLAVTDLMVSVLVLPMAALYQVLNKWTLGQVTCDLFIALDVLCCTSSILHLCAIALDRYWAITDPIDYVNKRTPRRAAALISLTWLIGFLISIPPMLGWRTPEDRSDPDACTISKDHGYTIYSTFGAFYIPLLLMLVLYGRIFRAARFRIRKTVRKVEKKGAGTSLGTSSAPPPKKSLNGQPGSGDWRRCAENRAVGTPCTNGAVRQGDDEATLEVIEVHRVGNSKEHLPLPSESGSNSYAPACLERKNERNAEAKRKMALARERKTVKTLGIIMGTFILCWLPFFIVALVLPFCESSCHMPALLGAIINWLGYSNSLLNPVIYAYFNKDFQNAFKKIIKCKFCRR
As to the kind of experiment: 5-HT1A radioligand binding, rat frontal cortex homogenate. Conditions: for Fold Increase (antilog of the difference of the test compound compared to buspirone): 5-HT1A binding potency relative to buspirone.

Experiment [1] relates to anesthetized normotensive Sprague-Dawley rats. As to the kind of experiment: Blood pressure and heart rate in anesthetized normotensive rats. It counts as in vivo, rat. The procedure: Male, normotensive Sprague-Dawley rats weighing 250-350 g (supplied by Charles River, France) were anesthetized with pentobarbitone sodium, 60 mg/kg, i.p., plus 15 mg/kg s.c. Blood pressure was recorded either from the left common carotid artery or from a femoral artery by means of a Statham pressure transducer (Type P23 AA) and heart rate was recorded from the electrocardiogram using a Beckman cardiotachometer coupler (Type 9757 B). […] A femoral vein was cannulated for the intravenous injection of drugs. After completion of all operative procedures, heparin 500 U was injected intravenously.
The compounds of Example I, 2-[4-[(2,3-dihydro-1,4-benzodioxine-2-yl)methylamino]butyl]-1,2-benzoisothiazol-3(2H)one-1,1-dioxide was administered s.c. as a saline solution in a volume of 1 ml/kg body weight. The following changes in blood pressure (B.P.) and heart rate (H.R.) were observed.

The test system of experiment [2] is conscious spontaneously hypertensive rats. Put plainly: Arterial blood pressure and heart rate in conscious spontaneously hypertensive rats. It counts as in vivo, rat. Conditions: for Δ BP / Δ HR: conscious SHR. The procedure: In a separate experiment arterial blood pressure and heart rate were measured directly in conscious male, spontaneously hypertensive rats weighing 250-350 g (Charles River, France). The same test compound was administered, either s.c. or orally, as a saline solution of 1 ml/kg body weight in the doses shown below.

Setting [3] is: [3H]-8-OH-DPAT, rat frontal cortex, mean ± S.E.M. of 3 independent experiments, read-out: 5-HT1A Binding Affinity Rat Brain Cortex (pIC50) (converted).

Experimental for 5-HT1A recognition sites: Radioligand binding studies of the 5-HT1A recognition sites were carried out as follows: male normotensive Sprague-Dawley rat frontal cortex was dissected, frozen in liquid nitrogen and stored at -20° C. until needed. Tissues from 4-8 rats were pooled and homogenised in 70 vol Tris-HCl buffer (50 mM, pH 7.7), using a kinematica Polytron (setting 2/3 max speed, 20 sec). The homogenate was centrifuged (36500×g for 10 min), the pellet re-homogenised in the same volume of buffer and the process repeated two more times. Between the second and third centrifugations the tissue homogenate was incubated at 37° C. for 10 min. The final pellet was suspended in the same volume of Tris buffer containing 10M pargyline, 5.7 mM CaCl2 and 0.1% ascorbic acid. This suspension was incubated for 10 min at 37° C. and then stored on ice until used in the binding assay.
Tissue homogenate (0.7 ml), radioactive ligand (0.1 ml) and the appropriate concentration of test compound (0.1 ml), together with buffer to a final volume of 1 ml were incubated at 37° C. for 15 min. Incubations were terminated by rapid filtration through Whatman GF/B filters followed by three 5 ml washes with ice-cold Tris-HCl buffer (50 mM, pH 7.0). Radioactivity was measured after extraction into Aquasol-Z (NEN) at an efficiency of 45-50%. The radioligand used to label the 5-HT1A recognition sites and its concentration is [^3 H]-8-hydroxy-2-(di-n-propylamino)-tetralin, ([^3 H]-8-OH-DPAT), 1 mM.

Regarding `O=C1c2ccccc2S(=O)(=O)N1CCCCNCC1COc2ccccc2O1` (stereo not drawn) [Example I, 2-[4-[(2,3-Dihydro-1,4-benzodioxin-2-yl)methylamino]butyl]-1,2-benzoisothiazol-3(2H)one-1,1-dioxide], on 5-HT1A recognition sites, the “Fold Increase (antilog of the difference of the test compound compared to buspirone)” value is 66. Besides, the IC50 on 5-HT1A recognition sites (setting [3]) is 0.457 nM. Besides, the “Effect on blood pressure and heart rate (in words)” value in experiment [1] was “effectively lowers the blood pressure and heart rate”; in experiment [2] (conscious spontaneously hypertensive rats), “lowers the blood pressure with reflex tachycardia”. Further, the “Δ BP” value is given as -35 mmHg in experiment [1] (25 μg/kg s.c.); -50 mmHg in experiment [1] (500 μg/kg s.c.); -20 mmHg in experiment [2] (100 μg/kg s.c.); -65 mmHg in experiment [2] (200 μg/kg s.c.); -75 mmHg in experiment [2] (500 μg/kg s.c.); -25 mmHg in experiment [2] (1 mg/kg per os). The “Δ BP” value in experiment [2] (5 mg/kg per os) is -45 mmHg. Further, the “Δ HR” value in experiment [1] (25 μg/kg s.c.) is -80 beats/min; in experiment [1] (500 μg/kg s.c.), -90 beats/min; in experiment [2] (100 μg/kg s.c.), “+80 beats/min”; in experiment [2] (200 μg/kg s.c.) it was “+100 beats/min”; in experiment [2] (500 μg/kg s.c.), “+120 beats/min”; in experiment [2] (1 mg/kg per os), “+100 beats/min”. The “Δ HR” value in experiment [2] (5 mg/kg per os) was “+100 beats/min”.
`O=C1c2ccccc2S(=O)(=O)N1CCCCN1CCc2c([nH]c3ccccc23)C1` [Example II, 2-[4-(2-[1,2,3,4]-tetrahydro-β-carbolinyl)butyl]-1,2-benzoisothiazol-3(2H)one-1,1-dioxide]: on 5-HT1A recognition sites, the IC50 is 6.92 nM and the “Fold Increase (antilog of the difference of the test compound compared to buspirone)” value turned out to be 4.4.
Turning to `COc1cccc2c1CC(NCCCCN1C(=O)c3ccccc3S1(=O)=O)CC2` (stereo not drawn) [Example III, 2-[4-[8-Methoxytetralin-2-amino]butyl]1,2-benzoisothiazol3(2H)one-1,1-dioxide], the “Fold Increase (antilog of the difference of the test compound compared to buspirone)” value at 5-HT1A recognition sites came out at 10. Moreover, at 5-HT1A recognition sites (setting [3]), the IC50 was 3.02 nM.
On to `O=C1c2ccccc2S(=O)(=O)N1CCCCNCC1COc2ccccc2N1` (stereo not drawn) [Example V, 2-[4-[(2,3-Dihydro-1,4-benzoxazin-3-yl)methylamino]butyl]-1,2-benzoisothiazol-3-(2H)one-1,1-dioxide], for which, at 5-HT1A recognition sites, the “Fold Increase (antilog of the difference of the test compound compared to buspirone)” value stood at 3.2. Moreover, the IC50 on 5-HT1A recognition sites (setting [3]) was 9.33 nM.

The record behind these values is patent US4920118A, “Aromatic 2-aminoalkyl-1,2-benzoisothiazol-3-(2H)one-1,1-dioxide and their use as anxiolytic and anti-hypertensive agents” (Merrell Dow Pharmaceuticals Inc., priority 1989, dated 1990).
